Experimental data from US11389452B2, “Methods for increasing blood plasma 2′-deoxyuridine (dUrd) and thymidylate synthase inhibition” (Isofol Medical AB, priority 2017, dated 2022).

Assays:
colorectal cancer = conditions: cited from earlier work
TS = conditions: cited from earlier work
[1] = target: T1, thymidylate synthase (TS) (Homo sapiens, UniProt P04818); assay: Incremental plasma dUrd (surrogate marker of TS inhibition) 24 hours after bolus 5-FU plus folate in mCRC patients, by LC-MS/MS; type: in vivo; conditions: for Mean (t24 − t0) plasma dUrd: 24 hours
T1 construct: endogenous in cells; host or cells: patients with metastatic colorectal cancer (in vivo); plasma sampled
Description: The safety and efficacy of [6R]-5,10-methylenetetrahydrofolate ([6R]-MTHF) is analyzed in an open-label, multiple-site, Phase I/II Dose Cohort Trial (ISO-CC-005) in patients with stage IV colorectal cancer (mCRC) to determine the safe and tolerable i.v. bolus dose of 6R-MTHF in combination with standard doses of 5-FU (500 mg/m^2) alone or in combination with a fixed dose of Bevacizumab, Oxaliplatin or Irinotecan in patients with stage IV colorectal cancer. Among groups of patients (n≥3) ascending 6R-MTHF doses of 30-240 mg/m^2 BSA are being evaluated in the presence of various permutations of the cytotoxics, 5-FU alone or 5-FU plus oxaliplatin, bevacizumab or irinotecan given at standard dose levels. The study is expected to be completed by year end 2017. A summary of the study design and each study arm is depicted below in Table 1.
In Gothenburg, for almost two decades, clinical, treatment and outcomes data on all patients with CRC have been collected. Plasma and tissue samples have been stored in a biobank under appropriate physical conditions for long term storage. The database and the biobank operate under the auspices of the relevant ethical and regulatory permissions. Patients having been treated with the standard 5-FU dose, 500 mg/m^2 plus i.v. bolus LV, 60 mg/m^2 (equivalent to 30 mg/m^2 of LLV) were randomly drawn from the databank.
The present study is a historical group comparison study. All patients have been treated with a standard dose of 500 mg 5-FU given as a bolus injection plus the respective folate 6R-MTHF or LV also given as bolus injections.
All patients have been measured during two consecutive treatment cycles with 5-FU. Values for dUrd were measured immediately before injection of 5-FU (t0) and after 24 hours (t24). Mean values and standard deviations for differences between t24 and t0 were calculated for the patients on each dose level of 30 and 60 mg/m^2 6R-MTHF, respectively. Some values have also been assayed and calculated for 240 mg/m^26R-MTHF.
Twenty-four patients with metastatic colorectal cancer (mCRC) treated with 5-FU plus 60 mg/m^2 LV were drawn at random from the data base and levels of dUrd were determined at t0 and t24 from two treatment cycles for each patient and the mean values and standard deviations for the differences between t24 and t0 were calculated in the same way as for the 6R-MTHF patients. Since LV is a 50:50 mixture of the natural (1-formyl-tetrahydrofolate) and unnatural (d-formyl-tetrahydrofolate) isomers the active isomer constitutes one half of the LV doses given. The molecular weights for LV and 6R-MTHF are very similar and therefore 60 mg of LV may be considered as equimolar with 30 mg of 6R-MTHF.
The differences between all four groups were tested by means of the Friedman two-way analysis of variance and thereafter the difference between the two equimolar groups LV 60 mg/m^2 and 6R-MTHF 30 mg/m^2 was tested by means of the Mann-Whitney U test. P-values less than 0.05 were considered significant.
Plasma dUrd was determined by a method comprising liquid chromatography followed by tandem mass spectrometry broadly summarized as follows. Plasma samples were removed from −80° C. freezer, trichloroacetic acid was added to the plasma, and the samples mixed and centrifuged. The supernatant was filtered in a 10 kDa molecular weight cut-off membrane filter and again centrifuged for 30 min. The solution at the bottom of the tube was then ready for LC-MS/MS analysis. […]

pancreas cancer = conditions: CoFactor combined with 5-FU, phase I/II trial; cited from earlier work

T1 sequence (P04818 2-313 limits assumed): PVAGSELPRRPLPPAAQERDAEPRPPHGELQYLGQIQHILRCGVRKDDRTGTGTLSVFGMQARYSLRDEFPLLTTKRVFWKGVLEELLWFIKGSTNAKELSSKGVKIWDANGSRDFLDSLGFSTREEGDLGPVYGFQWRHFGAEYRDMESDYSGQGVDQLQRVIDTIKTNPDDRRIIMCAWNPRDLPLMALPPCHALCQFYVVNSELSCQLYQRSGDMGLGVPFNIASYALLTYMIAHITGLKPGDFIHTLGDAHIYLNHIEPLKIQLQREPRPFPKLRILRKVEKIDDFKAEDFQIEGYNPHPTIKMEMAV

Nc1nc2c(c(=O)[nH]1)N(C=O)C(CNc1ccc(C(=O)N[C@@H](CCC(=O)O)C(=O)O)cc1)CN2 (some centres unmarked) [LV, 5-formyl tetrahydrofolate]
overall response rates (colorectal cancer; LV added to 5-FU): over 20%

Nc1nc2c(c(=O)[nH]1)N1CN(c3ccc(C(=O)N[C@@H](CCC(=O)O)C(=O)O)cc3)C[C@@H]1CN2 (single isomer, unassigned) [(6S)-isomer]
effect on the natural [6R]-isomer as co-substrate for TS (TS): partial competitive inhibitor

Nc1nc2c(c(=O)[nH]1)N1CN(c3ccc(C(=O)N[C@@H](CCC(=O)O)C(=O)O)cc3)C[C@H]1CN2 [6R-MTHF, [6R]-5,10-methylenetetrahydrofolic acid]
Mean (t24 − t0) plasma dUrd ([1]; 6R-MTHF 30 mg/m2 BSA bolus with 5-FU 500 mg/m2 bolus, 18 cycles): 74.7 pmol/mL | Mean (t24 − t0) plasma dUrd ([1]; 6R-MTHF 60 mg/m2 BSA bolus with 5-FU 500 mg/m2 bolus, 16 cycles): 91.8 pmol/mL | Mean (t24 − t0) plasma dUrd ([1]; 6R-MTHF 240 mg/m2 BSA bolus with 5-FU 500 mg/m2 bolus, 4 cycles): 99.9 pmol/mL | level of dUrd compared with equimolar LV ([1]; [6R]-MTHF 30 mg/m2 vs LV 60 mg/m2, together with 5-FU, p=0.03): significantly higher level of dUrd

O=c1[nH]cc(F)c(=O)[nH]1 [5-FU, 5-Fluorouracil]
overall response rate (colorectal cancer; 5-FU alone): 10-15%

Nc1nc(=O)c2c([nH]1)NC[C@H](CNc1ccc(C(=O)N[C@@H](CCC(=O)O)C(=O)O)cc1)N2C=O [LLV]
Mean (t24 − t0) plasma dUrd ([1]; active dose 30 mg/m2 BSA LLV, given as 60 mg/m2 d,l-LV bolus, with 5-FU 500 mg/m2 bolus, 48 cycles): 48.7 pmol/mL

Nc1nc(=O)c2c([nH]1)NCC1CN(c3ccc(C(=O)N[C@@H](CCC(=O)[O-])C(=O)[O-])cc3)CN21.[Ca+2] (stereo partly drawn) [CoFactor®, (dl)-5,10,-methylenepteroyl-monoglutamate calcium salt]
response rate (colorectal cancer; Phase II trial, previously untreated metastatic colorectal cancer): 35% | efficacy and safety compared with leucovorin (colorectal cancer; Phase IIb study in colorectal cancer): not demonstrated to be more efficacious than leucovorin | clinical benefit (stable disease or tumor response), share of patients (pancreas cancer): 40%
